For the assay, the system named is T. brucei. In words: growth inhibition of T. brucei parasites, late-stage follow-up, T. brucei MetRS inhibitor project, absorbance, round 1 (AID 743068). The following applies: T. brucei Lister 427 bloodstream forms, AlamarBlue fluorescence, 48 h. On the technique in general: Alamar Blue is a resazurin reagent that responds to reducing activity.

Structures are written as SMILES.

As usually defined, the IC50 is the point on the concentration scale where inhibition reaches its midpoint. The low end stands for greater potency in that assay, the high end for weaker potency in that assay. `COc1ccc(CCN(C(=S)Nc2ccccc2)C2CC(=O)N(c3ccc(Cl)cc3)C2=O)cc1` (stereo not given) registered an IC50 of 2.1 µM.
For the compound `CCN(CC)C(=O)C(=O)c1cn(CC(=O)Nc2ccccc2OC)c2ccccc12`, the IC50 was over 10 µM.
The value for `Cc1cccc(C(=O)NCCc2nc3ccccc3n2CCOc2ccccc2)c1` was over 10 µM; that for `CC1Cc2ccccc2N1C(=O)Cn1cc(C(=O)C(=O)N2CCOCC2)c2ccccc21` (stereo not given) was over 10 µM.
For the compound `O=C(NCCc1nc2ccccc2[nH]1)c1ccc(Cl)c(Cl)c1`, the IC50 is over 10 µM.
The value for `Cc1ccc(CNC(=O)CSc2nnc3c(n2)[nH]c2ccc(C)cc23)cc1` was over 10 µM; that for `CCN(C(=O)Cn1cc(C(=O)C(=O)N2CCOCC2)c2ccccc21)c1ccccc1` was over 10 µM; that for `O=C(NCCc1nc2ccccc2[nH]1)c1c(F)cccc1F` was over 10 µM.
Then `COc1ccccc1NC(=O)Cn1cc(C(=O)C(=O)N2CCOCC2)c2ccccc21`, with over 10 µM; and `CCC(=O)c1cn(CC(=O)Nc2cccc(C(F)(F)F)c2)c2ccccc12`, with over 10 µM.
The value for `Cc1cccc2[nH]c(CCN(C)C(=O)c3cccc(C4CCNC4)c3)nc12` (stereo not given) was over 10 µM; that for `CCCCn1c(CCNC(=O)c2ccc(F)cc2)nc2ccccc21` was over 10 µM; that for `O=C(Cn1cc(C(=O)C(=O)N2CCOCC2)c2ccccc21)NCC1CCCO1` (stereo not given) was over 10 µM.
On to `CCc1ccc2[nH]c3nc(SCC(=O)NCc4cccc(OC)c4)nnc3c2c1`, for which the IC50 was over 10 µM.
`COc1ccc(NC(=O)CSc2nnc3c4cc(C)ccc4n(C)c3n2)cc1` yielded an IC50 of over 10 µM.
Then `COc1ccccc1NC(=O)CSc1nnc2c(n1)[nH]c1ccc(C)cc12`, with over 10 µM; and `Cc1cccc(NC(=O)C2CC(=O)n3c(nc4ccccc43)N2)c1` (stereo not given), with over 10 µM; and `COc1ccc(CCN(C(=O)c2cccc(F)c2)C2CC(=O)N(c3ccc(Br)cc3)C2=O)cc1` (stereo not given), with over 10 µM.
Then `O=C(CSc1nnc2c(n1)[nH]c1ccc(Br)cc12)NCc1ccccc1`, with over 10 µM; and `O=C(NCc1nc2ccccc2[nH]1)C1=C[C@H](c2ccc3c(c2)OCO3)C[C@H](OCCCCO)O1`, with over 10 µM.
`O=C(NCCc1nc2ccccc2[nH]1)c1ccc(Cl)cc1Cl` came in with a half-inhibitory concentration (IC50) of over 10 µM.
Turning to `CC(C)c1nc2ccc(C(=O)N(C)CCc3nc4ccc(F)cc4[nH]3)cc2o1`, the IC50 was over 10 µM.
The compound `O=C(Cn1cc(C(=O)c2ccco2)c2ccccc21)Nc1cccc(C(F)(F)F)c1` showed a half-maximal inhibitory concentration (IC50) of 8.18 µM.
Then `O=C(Cn1cc(C(=O)C(=O)N2CCOCC2)c2ccccc21)NCc1ccccc1`, with over 10 µM; and `CCN(CC)C(=O)C(=O)c1cn(CC(=O)Nc2cccc(C(F)(F)F)c2)c2ccccc12`, with 2.55 µM.
In turn, `CCN(CC)C(=O)C(=O)c1cn(CC(=O)Nc2cccc(OC)c2)c2ccccc12` had an IC50 of over 10 µM.
Compound `O=C(NCc1nc2ccccc2[nH]1)C1=C[C@@H](C2CC2)C[C@@H](OCc2ccc(CO)cc2)O1` returned an IC50 of over 10 µM.
Take `O=C1CC(NCCc2ccccc2)C(=O)N1c1ccc(Br)cc1` (stereo not given): the IC50 was over 10 µM.
Turning to `CNC(=S)N(CCc1ccccc1)C1CC(=O)N(c2ccc(Br)cc2)C1=O` (stereo not given), the IC50 worked out at 3.44 µM. This lies in the single-digit micromolar range.
As for `CCO[C@H]1OC(C(=O)NCc2nc3ccccc3[nH]2)=C[C@@H](c2ccc(Br)cc2)[C@@H]1CCCO`, the IC50 is over 10 µM.
`CC(=O)c1cn(CC(=O)Nc2cccc(C(F)(F)F)c2)c2ccccc12` had an IC50 of over 10 µM.
As to `Cn1c(CCNC(=O)c2ccc(Cl)cc2)nc2ccccc21`, the concentration for half-maximal inhibition (IC50) was over 10 µM.
Compound `O=C(Cn1cc(C(=O)C2CC2)c2ccccc21)Nc1cccc(C(F)(F)F)c1` displayed an IC50 of 2.62 µM.
The compound `O=C(C(=O)N1CCOCC1)c1cn(CC(=O)N2CCCc3ccccc32)c2ccccc12` showed a 50% inhibitory concentration (IC50) of over 10 µM.
In turn, `O=C(Cn1cc(C(=O)c2ccccc2)c2ccccc21)Nc1cccc(C(F)(F)F)c1` showed a 50% inhibitory concentration (IC50) of 4.2 µM. That is a single-digit micromolar value.
Then `O=C(NCc1nc2ccccc2[nH]1)C1=C[C@H](c2ccccc2)C[C@H](OCc2ccc(CO)cc2)O1`, with over 10 µM.
The value for `CCc1ccc2c(c1)c1nnc(SCC(=O)Nc3ccc4c(c3)OCO4)nc1n2C` was over 10 µM; that for `Cc1cc2cc(C(=O)N3CCCC(c4nc5ccccc5[nH]4)C3)ccc2o1` (stereo not given) was over 10 µM.
The compound `Cc1ccc2[nH]c3nc(SCC(=O)Nc4ccc(C(F)(F)F)cc4)nnc3c2c1` returned an IC50 of over 10 µM.
The value for `CCN(CC)C(=O)C(=O)c1cn(CC(=O)N(CC)c2ccccc2)c2ccccc12` was over 10 µM.
The value for `Cc1ccc(C(=O)NCCc2nc3ccccc3[nH]2)cc1C` was over 10 µM; that for `CCN(CCc1nc2ccc(C)cc2[nH]1)C(=O)c1ccc2ncccc2c1` was over 10 µM.
Then `O=C(Cn1cc(C(=O)COc2ccccc2)c2ccccc21)Nc1cccc(C(F)(F)F)c1`, with over 10 µM.
Turning to `COc1ccc(NC(=O)C2CC(=O)n3c(nc4ccccc43)N2)cc1` (stereo not given), the IC50 was over 10 µM.
In turn, `O=C(CSC1CC(=O)N(c2cccc(Cl)c2)C1=O)Nc1ccc(Br)cc1` (stereo not given) returned an IC50 of over 10 µM.
Then `O=C(NCCc1nc2ccccc2[nH]1)c1ccc(Cl)cc1`, with over 10 µM; and `CC(C)(C)[C@H]1C=C(C(=O)NCc2nc3ccccc3[nH]2)O[C@@H](OCc2ccc(CO)cc2)C1`, with over 10 µM; and `O=C(Cn1cc(C(=O)C(=O)N2CCCC2)c2ccccc21)Nc1ccccc1`, with over 10 µM.
Then `COCCc1nc2ccc(C(=O)NCCc3nc4ccc(OC)cc4[nH]3)cc2o1`, with over 10 µM.
`COc1cccc(NC(=O)C2CC(=O)n3c(nc4ccccc43)N2)c1` (stereo not given) had a 50% inhibitory concentration (IC50) of over 10 µM.
Then `Cc1cccc2[nH]c(C3CCCN(C(=O)c4cccc5cccnc45)C3)nc12` (stereo not given), with over 10 µM; and `Cc1ccc(C(=O)NCCc2nc3ccccc3[nH]2)cc1[N+](=O)[O-]`, with over 10 µM; and `CC(=O)N(CCc1ccccc1)C1CC(=O)N(c2ccc(Cl)cc2)C1=O` (stereo not given), with over 10 µM.
`CCN(CC)C(=O)C(=O)c1cn(CC(=O)N2CCCc3ccccc32)c2ccccc12` gave a half-maximal inhibitory concentration (IC50) of over 10 µM.
The compound `CC(=O)N(CCc1ccccc1)C1CC(=O)N(c2ccc(Br)cc2)C1=O` (stereo not given) displayed an IC50 of over 10 µM.

The values are drawn from PubChem BioAssay AID743068 (The Scripps Research Institute Molecular Screening Center, 2013).
